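Tested at 5 concentrations; 48 h exposure; 96-well plates; endpoints linearly interpolated, else capped at highest concentration. GI50 marks 50% less growth.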 The source made the active and inactive calls. No stated cut-off is given here; in the data, active = GI50 up to about 1.1 µM and inactive = higher.
Key:
Assay in all cases: DTP human tumour cell line panel, 48 h
COLO 205 = system: COLO 205
CCRF-CEM = system: CCRF-CEM
OVCAR-5 = system: OVCAR-5
OVCAR-8 = system: OVCAR-8
K562 = system: K562
LOX IMVI = system: LOX IMVI
TK-10 = system: TK-10
SF-295 = system: SF-295
KM12 = system: KM12
SK-MEL-2 = system: SK-MEL-2
HOP-62 = system: HOP-62
IGROV-1 = system: IGROV-1
DU-145 = system: DU-145
UACC-257 = system: UACC-257
OVCAR-4 = system: OVCAR-4
U-251 = system: U-251
Malme-3M = system: Malme-3M
A498 = system: A498
NCI-H226 = system: NCI-H226

Structure (SMILES)	GI50 (COLO 205)	GI50 (CCRF-CEM)	GI50 (OVCAR-5)	GI50 (OVCAR-8)	GI50 (K562)	GI50 (LOX IMVI)	GI50 (TK-10)	GI50 (SF-295)	GI50 (KM12)	GI50 (SK-MEL-2)	GI50 (HOP-62)	GI50 (IGROV-1)	GI50 (DU-145)	GI50 (UACC-257)	GI50 (OVCAR-4)	GI50 (U-251)	GI50 (Malme-3M)	GI50 (A498)	GI50 (NCI-H226)
COc1cc(OC)c(C2c3cc4c(cc3OC(N3CCOCC3)C2C)OCO4)c(OC)c1 (centres undefined)	35.2 µM (inactive)	33.8 µM (inactive)	65.5 µM (inactive)	43.6 µM (inactive)	40.8 µM (inactive)	23.2 µM (inactive)	> 100 µM (inactive)	14.7 µM (inactive)	24.5 µM (inactive)	> 100 µM (inactive)	> 100 µM (inactive)	22.1 µM (inactive)	21.5 µM (inactive)	78.7 µM (inactive)					
O=S1(=O)OCCOS(=O)(=O)C1Cc1nc2ccccc2[nH]1	83.2 µM (inactive)	33 µM (inactive)	> 100 µM (inactive)	55.6 µM (inactive)	34.5 µM (inactive)	14.5 µM (inactive)	> 100 µM (inactive)	24.7 µM (inactive)	68.2 µM (inactive)	72.3 µM (inactive)	26.8 µM (inactive)		> 100 µM (inactive)	29.2 µM (inactive)	44.2 µM (inactive)	38.6 µM (inactive)	> 100 µM (inactive)		
O=C(CCC(=O)c1ccsc1)c1ccsc1	> 100 µM (inactive)		> 100 µM (inactive)	> 100 µM (inactive)		> 100 µM (inactive)	> 100 µM (inactive)	> 100 µM (inactive)	> 100 µM (inactive)	> 100 µM (inactive)	> 100 µM (inactive)	> 100 µM (inactive)	> 100 µM (inactive)	> 100 µM (inactive)	> 100 µM (inactive)	> 100 µM (inactive)	> 100 µM (inactive)	> 100 µM (inactive)	> 100 µM (inactive)
O=c1[nH]c2ccc(Cl)cc2c2oc(-c3ccccc3)nc12	65.8 µM (inactive)	45.5 µM (inactive)	52.1 µM (inactive)	5.62 µM (inactive)	72.6 µM (inactive)	32.5 µM (inactive)	35.5 µM (inactive)	21.6 µM (inactive)	40.8 µM (inactive)	17.8 µM (inactive)	20.7 µM (inactive)	29.1 µM (inactive)		52.7 µM (inactive)	18.1 µM (inactive)	20.7 µM (inactive)	29.3 µM (inactive)	21.3 µM (inactive)	21.2 µM (inactive)
CC[N+](C)(CC)CCNC(=O)C(O)(c1ccccc1)c1ccccc1	> 100 µM (inactive)	> 100 µM (inactive)	> 100 µM (inactive)	> 100 µM (inactive)	> 100 µM (inactive)	0.2 µM (active)	> 100 µM (inactive)	> 100 µM (inactive)	72.9 µM (inactive)		> 100 µM (inactive)	> 100 µM (inactive)	> 100 µM (inactive)	> 100 µM (inactive)	> 100 µM (inactive)	> 100 µM (inactive)	> 100 µM (inactive)		> 100 µM (inactive)
CC(/C=N/N=C1NCCCN1)=N\N=C1NCCCN1	> 100 µM (inactive)	> 100 µM (inactive)	> 100 µM (inactive)	> 100 µM (inactive)	> 100 µM (inactive)	> 100 µM (inactive)	> 100 µM (inactive)	> 100 µM (inactive)	> 100 µM (inactive)		> 100 µM (inactive)	> 100 µM (inactive)		> 100 µM (inactive)	> 100 µM (inactive)	> 100 µM (inactive)	> 100 µM (inactive)		> 100 µM (inactive)
COc1cc(/C=C(\C#N)c2ccccn2)cc(Br)c1O	35.5 µM (inactive)	31.3 µM (inactive)	> 100 µM (inactive)	65.3 µM (inactive)	4.48 µM (inactive)		> 100 µM (inactive)	37.8 µM (inactive)	36.1 µM (inactive)	32.9 µM (inactive)	28.8 µM (inactive)	54.7 µM (inactive)	> 100 µM (inactive)	48.8 µM (inactive)	> 100 µM (inactive)	28 µM (inactive)	26.4 µM (inactive)		72.6 µM (inactive)
O=C1Nc2ccccc2C(=O)/C1=C/NC(=S)NCc1ccccc1	> 100 µM (inactive)		> 100 µM (inactive)	> 100 µM (inactive)		> 100 µM (inactive)	> 100 µM (inactive)	> 100 µM (inactive)	> 100 µM (inactive)	> 100 µM (inactive)	> 100 µM (inactive)	> 100 µM (inactive)	> 100 µM (inactive)	> 100 µM (inactive)		> 100 µM (inactive)			> 100 µM (inactive)
O=C(CC(=O)n1nc(-c2ccccc2)c(/N=N/c2ccccc2C(=O)O)c1-c1ccccc1)Nc1ccc(Cl)cc1	50.7 µM (inactive)		43 µM (inactive)	36.8 µM (inactive)	25.6 µM (inactive)		> 100 µM (inactive)		> 100 µM (inactive)	29.5 µM (inactive)	19.6 µM (inactive)	1.5 µM (inactive)		32 µM (inactive)		19.2 µM (inactive)	75 µM (inactive)		30.6 µM (inactive)
COc1c(C(=O)/C(=N/Nc2ccc(C(=O)O)cc2)C(C)=O)c(O)cc2occc12	> 100 µM (inactive)	> 100 µM (inactive)	> 100 µM (inactive)	> 100 µM (inactive)	> 100 µM (inactive)	> 100 µM (inactive)	15.6 µM (inactive)	82.8 µM (inactive)	55 µM (inactive)	> 100 µM (inactive)	> 100 µM (inactive)	> 100 µM (inactive)	> 100 µM (inactive)	> 100 µM (inactive)		> 100 µM (inactive)	90.8 µM (inactive)		> 100 µM (inactive)
c1ccc(N/N=N/c2ccc(-c3nc4ccccc4o3)cc2)nc1	20.6 µM (inactive)		> 100 µM (inactive)	35.8 µM (inactive)	42.9 µM (inactive)	37.2 µM (inactive)	37.4 µM (inactive)		37.8 µM (inactive)	41.1 µM (inactive)	55.8 µM (inactive)	28.6 µM (inactive)	43.6 µM (inactive)	29.7 µM (inactive)	36 µM (inactive)	37.9 µM (inactive)	> 100 µM (inactive)	46.3 µM (inactive)	
CC(C)C(NCc1c(O)ccc2c(-c3ccccc3)cc(=O)oc12)C(=O)O (centres undefined)	> 100 µM (inactive)	> 100 µM (inactive)	> 100 µM (inactive)	> 100 µM (inactive)	> 100 µM (inactive)	> 100 µM (inactive)	> 100 µM (inactive)	> 100 µM (inactive)	> 100 µM (inactive)	> 100 µM (inactive)	> 100 µM (inactive)	> 100 µM (inactive)	> 100 µM (inactive)	> 100 µM (inactive)	> 100 µM (inactive)	> 100 µM (inactive)	> 100 µM (inactive)		> 100 µM (inactive)
CCOC(=O)CCC(NC(=O)C(CCC(=O)OCC)NC(=O)C(Cc1ccc([N+](=O)[O-])cc1)NC(C)=O)C(=O)NNC(=O)OC(C)(C)C (centres undefined)	> 100 µM (inactive)		> 100 µM (inactive)	> 100 µM (inactive)	> 100 µM (inactive)		> 100 µM (inactive)		> 100 µM (inactive)	> 100 µM (inactive)	> 100 µM (inactive)	> 100 µM (inactive)		> 100 µM (inactive)		> 100 µM (inactive)	> 100 µM (inactive)	> 100 µM (inactive)	> 100 µM (inactive)
CC(=O)Nc1ccc(NCC(=O)Nn2cnc3ccc(S(=O)(=O)Nc4ccc(NC(C)=O)cc4)cc3c2=O)cc1	> 100 µM (inactive)	> 100 µM (inactive)	> 100 µM (inactive)	> 100 µM (inactive)	> 100 µM (inactive)	> 100 µM (inactive)	> 100 µM (inactive)	> 100 µM (inactive)	> 100 µM (inactive)	> 100 µM (inactive)	> 100 µM (inactive)	> 100 µM (inactive)	> 100 µM (inactive)	> 100 µM (inactive)	> 100 µM (inactive)	> 100 µM (inactive)	> 100 µM (inactive)		> 100 µM (inactive)
CC(=O)OCC(C)C1=C(OC(C)=O)C(=O)C2(C)C/C=C(/C)CC/C=C(\C)CCC(OC(C)=O)C(C)CCC12 (centres undefined)	20.8 µM (inactive)	22.4 µM (inactive)	12.8 µM (inactive)	19.1 µM (inactive)	13.3 µM (inactive)	16.9 µM (inactive)	19.6 µM (inactive)	15.8 µM (inactive)	17.8 µM (inactive)	15 µM (inactive)	14.2 µM (inactive)	14.4 µM (inactive)	20.1 µM (inactive)	17.5 µM (inactive)	17.4 µM (inactive)	17.1 µM (inactive)			
Cc1cc(C)nc(NS(=O)(=O)c2ccc(NNc3c4ccccc4nc4c(C(=O)Nc5ccc(S(=O)(=O)Nc6ncccn6)cc5)cccc34)cc2)n1	27.1 µM (inactive)	22.8 µM (inactive)	16.4 µM (inactive)	26.2 µM (inactive)	28.6 µM (inactive)	20.7 µM (inactive)	50.9 µM (inactive)	32.4 µM (inactive)	34.5 µM (inactive)	16.2 µM (inactive)	33.5 µM (inactive)	35 µM (inactive)	31.8 µM (inactive)	33.7 µM (inactive)	33.7 µM (inactive)	21.8 µM (inactive)	26.7 µM (inactive)		22.5 µM (inactive)

From ChEMBL document CHEMBL1201862, “PubChem BioAssay data set” (2004)
